Reference: patent US12583839B2, “PD-L1 antagonist compound” (ADLAI NORTYE BIOPHARMA CO., LTD., priority 2019, dated 2026)

Target: T1, PD-1/PD-L1 (Homo sapiens, UniProt Q9NZQ7)
T1 construct: 60535 (PD-1/NFAT-Reporter-Jurkat); host or cells: CHO cells expressing PD-L1; Jurkat cells expressing PD-1
Assay: Detection of biological activity of PD-1/PD-L1 signaling inhibition at the cellular level (NFAT luciferase reporter, PD-1/NFAT-Reporter-Jurkat cells co-cultured with TCR activator/PD-L1-CHO cells)
Assay type: cell-based
Settings: PD-1/NFAT-Reporter-Jurkat + TCR activator/PD-L1-CHO co-culture, 6 hours; Atezolizumab as positive control
Text: Detection of Biological Activity of PD-1/PD-L1 Signaling Inhibition at the Cellular Level
This detection method is used for evaluating the biological activity of the compounds described in the present invention at the cellular level.
This detection method uses the luciferase reporter gene method to detect the biological activity of the compound on the inhibition of PD-1/PD-L1 signal at the cellular level. PD-1/NFAT—Reporter—Jurkat cells stably express human PD-1 and express the luciferase reporter gene regulated by NFAT elements; TCR activator/PD-L1-CHO cells stably express human PD-L1 and TCR activator elements. When the two cell lines were co-cultured, the binding of PD-1/PD-L1 inhibited the TCR signaling pathway, thereby inhibiting the expression of the downstream NFAT-controlled luciferase reporter gene. When PD-1/PD-L1 antibody or inhibitor is added, this inhibitory effect is reversed and luciferase is expressed, so that the effect of PD-1/PD-L1 inhibitor on luciferase activity can be detected.
PD-1/NFAT—Reporter—Jurkat cell (Cat: 60535) and TCR activator/PD-L1-CHO cell (Cat: 60536) were purchased from BPS Bioscience. Anti-human PD-L1 antibody (Atezolizumab, Cat: A2004) was purchased from Selleck; luciferase reporter gene expression detection kit (ONE-Glo™ Luciferase Assay System, Cat: E6120) was purchased from Promega; multifunction plate reader (SpectraMax i3x) was purchased from Molecular Devices.
The PD-1/NFAT—Reporter—Jurkat cells and TCR activator/PD-L1-CHO cells were cultured according to the routine cell culture protocol.
TCR activator/PD-L1-CHO cells were harvested and seeded into a 96-well culture plate at 35,000 cells/well in a medium volume of 100 μl and incubated overnight at 37° C. The next day, the medium was discarded, compound was added and incubated for 30 minutes, while a solvent control (dimethyl sulfoxide, DMSO, final concentration of 0.1%) and PD-L1 antibody (Atezolizumab, final concentration of about 10 nM) as positive controls were set. PD-1/NFAT-reporter-Jurkat cells were then added. After culturing for 6 hours, the luciferase activity was detected according to the instructions of the luciferase detection reagent.
Using PD-L1 antibody as a positive control, calculate the inhibition rate of PD-1/PD-L1 binding of the test compound (%)=(chemiluminescence value of compound treated wells/average value of chemiluminescence value of solvent control wells−1)/(average value of chemiluminescence value of PD-L1 antibody well/average value of chemiluminescence value of solvent control well−1)×100%.
According to the above detection method, the compounds of the present invention were evaluated for their biological activity at the cellular level, and the activity results are shown in the following table.

T1 sequence (Q9NZQ7 19-290): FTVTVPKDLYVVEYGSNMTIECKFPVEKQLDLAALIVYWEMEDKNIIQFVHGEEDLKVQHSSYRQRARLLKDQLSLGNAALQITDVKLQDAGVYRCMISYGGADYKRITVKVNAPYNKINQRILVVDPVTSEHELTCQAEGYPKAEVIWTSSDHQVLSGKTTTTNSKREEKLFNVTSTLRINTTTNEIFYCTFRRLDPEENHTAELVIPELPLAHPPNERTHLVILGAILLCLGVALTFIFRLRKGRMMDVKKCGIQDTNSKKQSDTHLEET

Row | SMILES | EC50
1 | COc1cc(Cn2ncc3c(-c4cccc(-c5cc(F)c(CNC[C@@H]6CCC(=O)N6)c(OC)c5)c4Cl)cccc32)c(Cl)cc1CN(C)C12CCC(C(=O)O)(CC1)CC2 [Compound 116] | 16 nM
2 | COc1cc(Cn2ncc3c(-c4cccc(-c5ccc(CNC[C@@H]6CCC(=O)N6)cc5)c4Cl)cc(Cl)cc32)c(Cl)cc1CN[C@@H](CO)C(=O)O [Compound 117] | 537 nM
3 | COc1cc(Cn2ncc3c(-c4cccc(-c5ccc(CNC[C@@H]6CCC(=O)N6)c(OC)n5)c4Cl)cccc32)c(Cl)cc1CN(C)C12CCC(C(=O)O)(CC1)CC2 [Compound 133] | 81 nM
4 | COc1cc(-c2cccc(-c3cccc4c3cnn4Cc3nc(OC)c(CN(C)C45CCC(C(=O)O)(CC4)CC5)cc3Cl)c2Cl)cc(F)c1CNC[C@@H]1CCC(=O)N1 [Compound 135] | 25 nM
5 | COc1cc(Cn2ncc3c(-c4cccc(-c5cc(F)c(CNC[C@@H]6CCC(=O)N6)c(OC)c5)c4Cl)cccc32)c(Cl)cc1CN(C)C12CC(C(=O)O)(C1)C2 [Compound 136] | 240 nM
6 | COc1nc(-c2cccc(-c3cccc4c3cnn4Cc3nc(OC)c(CN(C)C45CCC(C(=O)O)(CC4)CC5)cc3Cl)c2Cl)ccc1CNC[C@@H]1CCC(=O)N1 [Compound 137] | 41 nM
7 | COc1cc(Cn2ncc3c(-c4cccc(-c5cc(F)c(CNC[C@@H]6CCC(=O)N6)c(OC)c5)c4Cl)cccc32)c(C#N)cc1CN(C)[C@H]1C[C@H](C(=O)O)C1 [Compound 139] | 15 nM
8 | COc1cc(Cn2ncc3c(-c4cccc(-c5cc(F)c(CNC[C@@H]6CCC(=O)N6)c(OC)c5)c4Cl)cccc32)c(C#N)cc1CN(C)[C@]12CC[C@@](C(=O)O)(CC1)CC2 [Compound 140] | 25 nM
9 | COc1cc(Cn2ncc3c(-c4cccc(-c5cc(F)c(CNC[C@@H]6CCC(=O)N6)c(OC)c5)c4Cl)cccc32)c(C#N)cc1CN(C)[C@H]1CC[C@H](CC(=O)O)CC1 [Compound 141] | 40 nM
10 | COc1cc(Cn2ncc3c(-c4cccc(-c5cc(F)c(CNC[C@@H]6CCC(=O)N6)c(OC)c5)c4Cl)cccc32)c([N+](=O)[O-])cc1CN(C)[C@H]1C[C@H](C(=O)O)C1 [Compound 143] | 31 nM
11 | COc1cc(Cn2ncc3c(-c4cccc(-c5cc(F)c(CNC[C@@H]6CCC(=O)N6)c(OC)c5)c4Cl)cccc32)c([N+](=O)[O-])cc1CN(C)[C@H]1CC[C@H](CC(=O)O)CC1 [Compound 144] | 40 nM
12 | COc1cc(Cn2ncc3c(-c4cccc(-c5cc(F)c(CNC[C@@H]6CCC(=O)N6)c(OC)c5)c4Cl)cccc32)c([N+](=O)[O-])cc1CN(C)C12CCC(C(=O)O)(CC1)CC2 [Compound 145] | 51 nM
13 | COc1cc(Cn2ncc3c(-c4cccc(-c5cc(F)c(CNC[C@@H]6CCC(=O)N6)c(OC)c5)c4Cl)cccc32)c(C(F)(F)F)cc1CN(C)[C@H]1CC[C@H](CC(=O)O)CC1 [Compound 147] | 32 nM
14 | COc1cc(Cn2ncc3c(-c4cccc(-c5cc(F)c(CNC[C@@H]6CCC(=O)N6)c(OC)c5)c4Cl)cccc32)c(C(F)(F)F)cc1CN(C)[C@H]1CC[C@H](C(=O)O)CC1 [Compound 148] | 34 nM
15 | COc1cc(Cn2ncc3c(-c4cccc(-c5cc(F)c(CNC[C@@H]6CCC(=O)N6)c(OC)c5)c4Cl)cccc32)c(C(F)(F)F)cc1CN(C)[C@H]1C[C@H](C(=O)O)C1 [Compound 149] | 28 nM
16 | COc1cc(Cn2ncc3c(-c4cccc(-c5cc(F)c(CNC[C@@H]6CCC(=O)N6)c(OC)c5)c4Cl)cccc32)c(C(F)(F)F)cc1CN(C)C12CCC(C(=O)O)(CC1)CC2 [Compound 150] | 30 nM

The next lines start with the values.

Row | EC50 | SMILES
17 | 15 nM | COc1cc(Cn2ncc3c(-c4cccc(-c5cc(F)c(CNC[C@@H]6CCC(=O)N6)c(OC)c5)c4Cl)cccc32)c(Cl)cc1CN(C)[C@H]1C[C@H](C(=O)O)C1 [Compound 113]
18 | 14 nM | COc1cc(Cn2ncc3c(-c4cccc(-c5cc(F)c(CNC[C@@H]6CCC(=O)N6)c(OC)c5)c4Cl)cccc32)c(Cl)cc1CN(C)[C@H]1CC[C@H](C(=O)O)CC1 [Compound 114]
19 | 16 nM | COc1cc(Cn2ncc3c(-c4cccc(-c5cc(F)c(CNC[C@@H]6CCC(=O)N6)c(OC)c5)c4Cl)cccc32)c(Cl)cc1CN(C)C1CCC(CC(=O)O)CC1 (stereo partly drawn) [Compound 115]
20 | 53 nM | COc1cc(-c2cccc(-c3cccc4c3cnn4Cc3cc(OC)c(CN(C)CC4CCC(CC(=O)O)CC4)cc3Cl)c2Cl)ccc1CNC[C@@H]1CCC(=O)N1 (stereo partly drawn) [Compound 118]
21 | 152 nM | COc1cc(-c2cccc(-c3cccc4c3cnn4Cc3cc(OC)c(CN(C)C4CC(CC(=O)O)C4)cc3Cl)c2Cl)ccc1CNC[C@@H]1CCC(=O)N1 (stereo partly drawn) [Compound 119]
22 | 32 nM | COc1cc(-c2cccc(-c3cccc4c3cnn4Cc3cc(OC)c(CN(C)C4CCC(/C=C/C(=O)O)CC4)cc3Cl)c2Cl)ccc1CNC[C@@H]1CCC(=O)N1 (stereo partly drawn) [Compound 120]
23 | 34 nM | COc1cc(-c2cccc(-c3cccc4c3cnn4Cc3cc(OC)c(CN(C)C4CCC(CCC(=O)O)CC4)cc3Cl)c2Cl)ccc1CNC[C@@H]1CCC(=O)N1 (stereo partly drawn) [Compound 121]
24 | 320 nM | COc1cc(-c2cccc(-c3cccc4c3cnn4Cc3cc(OC)c(CN(C4CCC(C(=O)O)CC4)C4CC4)cc3Cl)c2Cl)ccc1CNC[C@@H]1CCC(=O)N1 (stereo partly drawn) [Compound 122]
25 | 91 nM | CCOc1cc(Cn2ncc3c(-c4cccc(-c5ccc(CNC[C@@H]6CCC(=O)N6)c(OC)c5)c4Cl)cccc32)c(Cl)cc1CN(C)C[C@H]1CC[C@H](C(=O)O)CC1 [Compound 124]
26 | 680 nM | COc1cc(-c2cccc(-c3cccc4c3cnn4Cc3cc(OC)c(CN(Cc4ccccc4)[C@H]4CC[C@H](C(=O)O)CC4)cc3Cl)c2Cl)ccc1CNC[C@@H]1CCC(=O)N1 [Compound 125]
27 | 103 nM | COc1cc(-c2cccc(-c3cccc4c3cnn4Cc3cc(OC)c(CN(CC4CC4)[C@H]4CC[C@H](C(=O)O)CC4)cc3Cl)c2Cl)ccc1CNC[C@@H]1CCC(=O)N1 [Compound 126]
28 | 160 nM | COc1cc(-c2cccc(-c3cccc4c3cnn4Cc3cc(OCC(N)=O)c(CN(C)C[C@H]4CC[C@H](C(=O)O)CC4)cc3Cl)c2Cl)ccc1CNC[C@@H]1CCC(=O)N1 [Compound 127]
29 | 391 nM | COc1cc(-c2cccc(-c3cccc4c3cnn4Cc3cc(OCC(=O)O)c(CN(C)C[C@H]4CC[C@H](C(=O)O)CC4)cc3Cl)c2Cl)ccc1CNC[C@@H]1CCC(=O)N1 [Compound 128]
30 | 29 nM | COc1cc(-c2cccc(-c3cccc4c3cnn4Cc3cc(OC)c(CN(C)[C@H]4CC[C@H](C(=O)NS(C)(=O)=O)CC4)cc3Cl)c2Cl)ccc1CNC[C@@H]1CCC(=O)N1 [Compound 129]
31 | 134 nM | COc1cc(Cn2ncc3c(-c4cccc(-c5cc(F)c(CNC[C@@H]6CCC(=O)N6)c(OC)c5)c4Cl)cccc32)c(Cl)cc1CN(C)C[C@H]1CC[C@H](CC(=O)O)CC1 [Compound 130]
32 | 40 nM | COc1cc(Cn2ncc3c(-c4cccc(-c5cc(F)c(CNC[C@@H]6CCC(=O)N6)c(OC)c5)c4Cl)cccc32)c(Cl)cc1CN(C)[C@H]1CC[C@H](CCC(=O)O)CC1 [Compound 131]
33 | 23 nM | COc1cc(Cn2ncc3c(-c4cccc(-c5cc(F)c(CNC[C@@H]6CCC(=O)N6)c(OC)c5)c4Cl)cccc32)c(Cl)cc1CN(C)[C@H]1CC[C@H](/C=C/C(=O)O)CC1 [Compound 132]
34 | 68 nM | COc1cc(-c2cccc(-c3cccc4c3cnn4Cc3cc(OC[C@@H]4CCC(=O)N4)c(CN(C)C[C@H]4CC[C@H](C(=O)O)CC4)cc3Cl)c2Cl)ccc1CNC[C@@H]1CCC(=O)N1 [Compound 134]
35 | 37 nM | COc1cc(Cn2ncc3c(-c4cccc(-c5cc(F)c(CNC[C@@H]6CCC(=O)N6)c(OC)c5)c4Cl)cccc32)c([N+](=O)[O-])cc1CN(C)[C@H]1CC[C@H](C(=O)O)CC1 [Compound 142]
36 | 28 nM | COc1cc(-c2cccc(-c3cccc4c3cnn4Cc3cc(OC)c(CN(C)C4CCC(CC(=O)O)CC4)cc3C(F)(F)F)c2Cl)ccc1CNC[C@@H]1CCC(=O)N1 (stereo partly drawn) [Compound 146]
37 | 63 nM | COc1cc(-c2cccc(-c3cccc4c3cnn4Cc3nc(OC)c(CN(C)[C@H]4CC[C@H](C(=O)O)CC4)cc3Cl)c2Cl)ccc1CNC[C@@H]1CCC(=O)N1 [Compound 151]
38 | 56 nM | COc1cc(Cn2ncc3c(-c4cccc(-c5ccc(CNC[C@@H]6CCC(=O)N6)c(OC)n5)c4Cl)cccc32)c(Cl)cc1CN(C)[C@H]1CC[C@H](C(=O)O)CC1 [Compound 152]
39 | 94 nM | COc1cc(-c2cccc(-c3cccc4c3cnn4Cc3cc(OC)c(CN(C)C4CCC(C(=O)O)CC4)cc3Cl)c2Cl)ccc1CNC[C@@H]1CCCC(=O)N1 (stereo partly drawn) [Compound 153]
